Molecular target: T1, KRAS-G12C/SOS1 (Homo sapiens, UniProt Q07889)
T1 construct: purchased Cisbio 63ADKOOOCB16PEG
T1 sequence (Q07889 1-1333): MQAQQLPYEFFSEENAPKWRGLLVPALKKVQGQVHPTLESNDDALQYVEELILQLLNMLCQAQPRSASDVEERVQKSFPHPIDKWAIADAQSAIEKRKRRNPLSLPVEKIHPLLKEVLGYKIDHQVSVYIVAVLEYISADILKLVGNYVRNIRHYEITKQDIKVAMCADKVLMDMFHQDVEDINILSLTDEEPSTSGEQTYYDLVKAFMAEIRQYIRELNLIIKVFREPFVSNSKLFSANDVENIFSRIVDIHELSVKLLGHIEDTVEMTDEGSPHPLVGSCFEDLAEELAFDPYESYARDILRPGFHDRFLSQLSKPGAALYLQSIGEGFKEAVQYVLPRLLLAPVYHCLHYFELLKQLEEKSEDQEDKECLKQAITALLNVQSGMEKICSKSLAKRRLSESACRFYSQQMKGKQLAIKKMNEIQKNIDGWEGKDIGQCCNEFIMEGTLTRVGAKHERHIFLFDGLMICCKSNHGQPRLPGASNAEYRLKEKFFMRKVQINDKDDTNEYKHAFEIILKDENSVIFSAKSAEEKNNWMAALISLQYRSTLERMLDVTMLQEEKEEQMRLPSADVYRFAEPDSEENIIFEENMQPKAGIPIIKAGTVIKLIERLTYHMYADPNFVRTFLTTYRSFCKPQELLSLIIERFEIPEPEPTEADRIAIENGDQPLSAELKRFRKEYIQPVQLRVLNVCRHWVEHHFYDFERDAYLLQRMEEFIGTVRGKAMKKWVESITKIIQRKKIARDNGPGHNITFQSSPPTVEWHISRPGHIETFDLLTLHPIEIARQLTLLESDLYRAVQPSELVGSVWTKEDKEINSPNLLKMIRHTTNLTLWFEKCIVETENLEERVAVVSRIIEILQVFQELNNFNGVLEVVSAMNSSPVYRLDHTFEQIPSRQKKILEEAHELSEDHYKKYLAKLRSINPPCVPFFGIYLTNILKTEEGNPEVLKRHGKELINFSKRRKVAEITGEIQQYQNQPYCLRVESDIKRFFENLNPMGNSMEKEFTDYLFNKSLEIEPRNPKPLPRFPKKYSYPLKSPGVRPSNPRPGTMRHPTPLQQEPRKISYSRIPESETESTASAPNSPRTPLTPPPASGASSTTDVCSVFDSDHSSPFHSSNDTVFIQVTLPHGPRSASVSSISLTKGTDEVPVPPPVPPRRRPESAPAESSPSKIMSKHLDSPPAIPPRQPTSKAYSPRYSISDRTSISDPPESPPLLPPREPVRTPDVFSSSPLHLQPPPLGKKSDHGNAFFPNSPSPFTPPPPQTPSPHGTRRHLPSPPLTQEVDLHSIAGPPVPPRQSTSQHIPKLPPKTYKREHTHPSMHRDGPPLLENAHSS
Experiment: KRAS-G12C/SOS1 binding assay (HTRF)
Settings: inhibition of KRAS-G12C/SOS1 binding
In short: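 HTRF competition assay with Tag1-SOS1 and Tag2-KRAS-G12C (10 μM GTP). Compounds at 10000 nM-0.04 nM final (0.5% DMSO), incubated 15 min at 25° C, then anti-tag Tb3+/XL665 antibodies added for 3 h on ice. The 665/620 nm ratio was compared with control and IC50 derived by nonlinear fit.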

IC50 [µM]	Compound
≤ 0.015	COc1cc2nc(C)nc(N[C@H](C)c3cc(N)cc(C(F)(F)F)c3)c2cc1[C@H]1CC[C@H](C(=O)N2CCN(CC3CCC4(CC3)CCN(C(=O)c3ccc(Cl)c(N5CCC(=O)NC5=O)c3)CC4)CC2)CC1 [Example 2, 1-(5-(9-((4-((1R,4R)-4-(4-(((R)-1-(3-amino-5-(trifluoromethyl)phenyl)ethyl)amino)-7-methoxy-2-methylquinazolin-6-yl)cyclohexane-1-carbonyl)piperazin-1-yl)methyl)-3-azaspiro[5.5]undecane-3-carbonyl)-2-chlorophenyl)dihydropyrimidine-2,4(1H,3H)-dione]
0.015 to 0.03	COc1cc2nc(C)nc(N[C@H](C)c3cc(N)cc(C(F)(F)F)c3)c2cc1[C@H]1CC[C@H](C(=O)N2CCN(CCC3CCC4(CC3)CCN(C(=O)c3ccc(Cl)c(N5CCC(=O)NC5=O)c3)CC4)CC2)CC1 [Example 1, 1-(5-(9-(2-(4-((1R,4R)-4-(4-(((R)-1-(3-amino-5-(trifluoromethyl)phenyl)ethyl)amino)-7-methoxy-2-methylquinazolin-6-yl)cyclohexane-1-carbonyl)piperazin-1-yl)ethyl)-3-azaspiro[5.5]undecane-3-carbonyl)-2-chlorophenyl)dihydropyrimidine-2,4(1H,3H)-dione]

— patent publication US20240261417A1, “SOS1 DEGRADING AGENT AND PREPARATION METHOD THEREFOR AND APPLICATION THEREOF” (SHANGHAI LEADINGTAC PHARMACEUTICAL CO. LTD., priority 2021, published 2024)
